In patent US20080293696A1, “2-Aminoarylcarboxamides Useful as Cancer Chemotherapeutic Agents” (Bayer Pharmaceuticals Corporation, priority 2004, published 2008):
Where a name gives a salt, the structure may show the parent alone.

These molecules were tested on PAKT/PKB (p-(S473) AKT) in H209 small cell lung carcinoma cells stimulated with Stem Cell Factor (assay: PAKT/PKB Cytoblot Assay with H209 cells (SCF-stimulated p-(S473) AKT)). Details: Homo sapiens, NCI-H209, compound 1 hour, SCF 25 ng/mL 5 minutes, group: between 500 nM and 1 μM (units in value).
Type: cell-based
Outline: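 H209 SCLC cells kept overnight in RPMI with 0.1% BSA were pretreated 1 h at 37 °C with compound (0.01–10 μM final), then stimulated with SCF 25 ng/mL for 5 min. After formaldehyde/methanol fixation, p-(S473) AKT was detected in-cell with HRP secondary and ECL chemiluminescence, and IC50 was derived.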

Row | IC50 | Structure (SMILES)
1 | 500 to 1000 nM | COc1ccc(NC(=O)Nc2cc(CNc3ccccc3C(=O)Nc3ccc4c(c3)OC(F)(F)O4)ccn2)cc1 [Example 163, N-(2,2-difluoro-1,3-benzodioxol-5-yl)-2-({[2-({[(4-methoxyphenyl)amino]carbonyl}amino)pyridin-4-yl]methyl}amino)benzamide]
2 | 500 to 1000 nM | NCC(O)CNc1cc(CNc2ccccc2C(=O)Nc2ccc3c(c2)OC(F)(F)O3)ccn1 (stereo not drawn) [Example 142, 2-[({2-[(3-amino-2-hydroxypropyl)amino]pyridin-4-yl}methyl)amino]-N-(2,2-difluoro-1,3-benzodioxol-5-yl)benzamidebis(trifluoroacetate)(salt)]

The next lines start with the molecule.

Row | Structure (SMILES) | IC50
3 | CCCCOCCCNC(=O)c1cc(CNc2ccccc2C(=O)Nc2ccc3c(c2)OC(F)(F)O3)ccn1 [Example 112, N-(3-butoxypropyl)-4-{[(2-{[(2,2difluoro-1,3-benzodioxol-5-yl)amino]carbonyl}phenyl)amino]methyl}pyridine-2-carboxamide] | 500 to 1000 nM
4 | CC1(C)OCC(CNC(=O)c2cc(CNc3ccccc3C(=O)Nc3ccc4c(c3)OC(F)(F)O4)ccn2)O1 (stereo not drawn) [Example 78, 4-{[(2-{[(2,2-Difluoro-1,3-benzodioxol-5-yl)amino]carbonyl}phenyl)amino]methyl}-N-[(2,2-dimethyl-1,3-dioxolan-4-yl)methyl]pyridine-2-carboxamide] | 500 to 1000 nM

Same assay, conditions: Homo sapiens, NCI-H209, compound 1 hour, SCF 25 ng/mL 5 minutes, group: between 1 and 3 μM

Row | Structure (SMILES) | IC50
5 | CSCC[C@@H](CO)NC(=O)c1cc(CNc2ccccc2C(=O)Nc2ccc3c(c2)OC(F)(F)O3)ccn1 [Example 127, 4-{[(2-{[(2,2-difluoro-1,3-benzodioxol-5-yl)amino]carbonyl}phenyl)amino]methyl}-N-[(1S)-1-(hydroxymethyl)-3-(methylthio)propyl]pyridine-2-carboxamide] | 1000 to 3000 nM
6 | COc1ccc(CCNC(=O)c2cc(CNc3ccccc3C(=O)Nc3ccc4c(c3)OC(F)(F)O4)ccn2)cc1 [Example 122, 4-{[(2-{[(2,2-difluoro-1,3-benzodioxol-5-yl)amino]carbonyl}phenyl)amino]methyl}-N-[2-(4-methoxyphenyl)ethyl]pyridine-2-carboxamide] | 1000 to 3000 nM
7 | CN(C)CC(C)(C)CNC(=O)c1cc(CNc2ccccc2C(=O)Nc2ccc3c(c2)OC(F)(F)O3)ccn1 [Example 121, 4-{[(2-{[(2,2-difluoro-1,3-benzodioxol-5-yl)amino]carbonyl}phenyl)amino]methyl}-N-[3-(dimethylamino)-2,2-dimethylpropyl]pyridine-2-carboxamide] | 1000 to 3000 nM
8 | COc1cccc(NC(=O)Nc2cc(CNc3ccccc3C(=O)Nc3ccc4c(c3)OC(F)(F)O4)ccn2)c1 [Example 167, N-(2,2-difluoro-1,3-benzodioxol-5-yl)-2-({[2-({[(3-methoxyphenyl)amino]carbonyl}amino)pyridin-4-yl]methyl}amino)benzamide] | 1000 to 3000 nM

Same assay, conditions: Homo sapiens, NCI-H209, compound 1 hour, SCF 25 ng/mL 5 minutes, group: less than 500 nM

Row | IC50 | Structure (SMILES)
9 | < 500 nM | O=C(Nc1ccc2c(c1)OC(F)(F)O2)c1ccccc1NCc1ccnc(NCC2CCCO2)c1 (stereo not drawn) [Example 148, N-(2,2-difluoro-1,3-benzodioxol-5-yl)-2-[({2-[(tetrahydrofuran-2-ylmethyl)amino]pyridin-4-yl}methyl)amino]benzamide trifluoroacetate]
10 | < 500 nM | CC(C)OCCCNc1cc(CNc2ccccc2C(=O)Nc2ccc3c(c2)OC(F)(F)O3)ccn1 [Example 140, N-(2,2-difluoro-1,3-benzodioxol-5-yl)-2-[({2-[(3-isopropoxypropyl)amino]pyridin-4-yl}methyl)amino]benzamide trifluoroacetate]
11 | < 500 nM | CCNC(=O)Nc1cc(CNc2ccccc2C(=O)Nc2ccc3c(c2)OC(F)(F)O3)ccn1 [Example 162, N-(2,2-difluoro-1,3-benzodioxol-5-yl)-2-{[(2-{[(ethylamino)carbonyl]amino}pyridin-4-yl)methyl]amino}benzamide]
12 | < 500 nM | O=C(Nc1ccc2c(c1)OC(F)(F)O2)c1ccccc1NCc1ccnc(NCCCn2ccnc2)c1 [Example 146, N-(2,2-difluoro-1,3-benzodioxol-5-yl)-2-{[(2-{[3-(1H-imidazol-1-yl)propyl]amino}pyridin-4-yl)methyl]amino}benzamidebis(trifluoroacetate)]
13 | < 500 nM | O=C(Nc1ccc2c(c1)OC(F)(F)O2)c1ccccc1NCc1ccnc(NCCCN2CCOCC2)c1 [Example 144, N-(2,2-difluoro-1,3-benzodioxol-5-yl)-2-[({2-[(3-morpholin-4-ylpropyl)amino]pyridin-4-yl}methyl)amino]benzamidebis(trifluoroacetate)]
14 | < 500 nM | CC(C)(CO)CNc1cc(CNc2ccccc2C(=O)Nc2ccc3c(c2)OC(F)(F)O3)ccn1 [Example 141, N-(2,2-difluoro-1,3-benzodioxol-5-yl)-2-[({2-[(3-hydroxy-2,2-dimethylpropyl)amino]pyridin-4-yl}methyl)amino]benzamide trifluoroacetate(salt)]

Continued, molecule first:

Row | Structure (SMILES) | IC50
15 | CNC(=O)c1cc(CNc2cc(F)c(F)cc2C(=O)Nc2ccc3c(c2)OC(F)(F)C(F)(F)O3)ccn1 [Example 37, 4-{[(4,5-difluoro-2-{[(2,2,3,3-tetrafluoro-2,3-dihydro-1,4-benzodioxin-6-yl)amino]carbonyl}phenyl)amino]methyl}-N-methylpyridine-2-carboxamide] | < 500 nM
16 | CNC(=O)c1cc(CNc2cc(F)ccc2C(=O)Nc2ccc3c(c2)OC(F)(F)O3)ccn1 [Example 33, 4-{[(2-{[(2,2-difluoro-1,3-benzodioxol-5-yl)amino]carbonyl}-5-fluorophenyl)amino]methyl}-N-methylpyridine-2-carboxamide] | < 500 nM
17 | O=C(NCCCN1CCCC1)c1cc(CNc2ccccc2C(=O)Nc2ccc3c(c2)OC(F)(F)O3)ccn1 [Example 92, 4-{[(2-{[(2,2-difluoro-1,3-benzodioxol-5-yl)amino]carbonyl}phenyl)amino]methyl}-N-(3-pyrrolidin-1-ylpropyl)pyridine-2-carboxamide] | < 500 nM
18 | O=C(Nc1ccc2c(c1)OC(F)(F)C(F)(F)O2)c1ccccc1NCc1ccncc1 [Example 6, 2-[(pyridin-4-ylmethyl)amino]-N-(2,2,3,3-tetrafluoro-2,3-dihydro-1,4-benzodioxin-6-yl)benzamide] | < 500 nM
19 | CCNC(=O)c1cc(CNc2ccc(F)cc2C(=O)Nc2ccc3c(c2)OC(F)(F)O3)ccn1 [Example 46, 4-{[(2-{[(2,2-difluoro-1,3-benzodioxol-5-yl)amino]carbonyl}-4-fluorophenyl)amino]methyl}-N-ethylpyridine-2-carboxamide] | < 500 nM
20 | O=C(Nc1ccc2c(c1)OC(F)(F)O2)c1cc(F)ccc1NCc1ccncc1 [Example 20, N-(2,2-difluoro-1,3-benzodioxol-5-yl)-5-fluoro-2-[(pyridin-4-ylmethyl)amino]benzamide] | < 500 nM
21 | CN(C)CCNC(=O)c1cc(CNc2ccccc2C(=O)Nc2ccc3c(c2)OC(F)(F)O3)ccn1 [Example 85, 4-{[(2-{[(2,2-difluoro-1,3-benzodioxol-5-yl)amino]carbonyl}phenyl)amino]methyl}-N-[2-(dimethylamino)ethyl]pyridine-2-carboxamide] | < 500 nM
22 | CNc1nccc(CNc2ccccc2C(=O)Nc2ccc3c(c2)OC(F)(F)C(F)(F)O3)n1 [Example 51, 2-({[2-(methylamino)pyrimidin-4-yl]methyl}amino)-N-(2,2,3,3-tetrafluoro-2,3-dihydro-1,4-benzodioxin-6-yl)benzamide] | < 500 nM
23 | O=C(Nc1ccc2c(c1)OC(F)(F)O2)c1ccc(F)cc1NCc1ccncc1 [Example 21, N-(2,2-difluoro-1,3-benzodioxol-5-yl)-4-fluoro-2-[(pyridin-4-ylmethyl)amino]benzamide] | < 500 nM
24 | CC1CCCCN1CCCNC(=O)c1cc(CNc2ccccc2C(=O)Nc2ccc3c(c2)OC(F)(F)O3)ccn1 (stereo not drawn) [Example 119, 4-{[(2-{[(2,2-difluoro-1,3-benzodioxol-5-yl)amino]carbonyl}phenyl)amino]methyl}-N-[3-(2-methylpiperidin-1-yl)propyl]pyridine-2-carboxamide] | < 500 nM
25 | O=C(NCCc1ccccn1)c1cc(CNc2ccccc2C(=O)Nc2ccc3c(c2)OC(F)(F)O3)ccn1 [Example 120, 4-{[(2-{[(2,2-difluoro-1,3-benzodioxol-5-yl)amino]carbonyl}phenyl)amino]methyl}-N-(2-pyridin-2-ylethyl)pyridine-2-carboxamide] | < 500 nM
26 | CN1CCCC1CCNC(=O)c1cc(CNc2ccccc2C(=O)Nc2ccc3c(c2)OC(F)(F)O3)ccn1 (stereo not drawn) [Example 117, 4-{[(2-{[(2,2-difluoro-1,3-benzodioxol-5-yl)amino]carbonyl}phenyl)amino]methyl}-N-[2-(1-methylpyrrolidin-2-yl)ethyl]pyridine-2-carboxamide] | < 500 nM
27 | COc1cccc(NCc2ccncc2)c1C(=O)Nc1ccc2c(c1)C(F)(F)OC(F)(F)O2 [Example 10, 2-methoxy-6-[(pyridin-4-ylmethyl)amino]-N-(2,2,4,4-tetrafluoro-4H-1,3-benzodioxin-6-yl)benzamide] | < 500 nM
28 | CCCOCCCNC(=O)c1cc(CNc2ccccc2C(=O)Nc2ccc3c(c2)OC(F)(F)O3)ccn1 [Example 124, 4-{[(2-{[(2,2-difluoro-1,3-benzodioxol-5-yl)amino]carbonyl}phenyl)amino]methyl}-N-(3-propoxypropyl)pyridine-2-carboxamide] | < 500 nM
29 | CCNC(=O)c1cc(CNc2cc(F)ccc2C(=O)Nc2ccc3c(c2)OC(F)(F)O3)ccn1 [Example 47, 4-{[(2-{[(2,2-difluoro-1,3-benzodioxol-5-yl)amino]carbonyl}-5-fluorophenyl)amino]methyl}-N-ethylpyridine-2-carboxamide] | < 500 nM
30 | CNC(=O)c1cc(CNc2ccc(F)cc2C(=O)Nc2ccc3c(c2)OC(F)(F)O3)ccn1 [Example 31, 4-{[(2-{[(2,2-difluoro-1,3-benzodioxol-5-yl)amino]carbonyl}-4-fluorophenyl)amino]methyl}-N-methylpyridine-2-carboxamide] | < 500 nM
